Patent EP2832347B1, “Method for identifying patchouli odorant materials” (Takasago International Corporation, priority 2013, dated 2015)
Values joined by “and” are separate entries in the source; they are usually repeats but may differ in a detail not shown here. Identical values can stand only once.

Assay: Long-lasting analysis on scent strip (GC-MS with internal standard)
Type: physicochemical
Details: for PA (GC-MS signal), sample 1-3 / Ratio PA/IS, sample 1-3: individual scent strips, listed as PA
Description: In one embodiment, the long-lasting analysis is carried out as follows: 50 µl of a 1 % solution of the identified candidate to be tested in alcohol, preferably ethanol, are applied on a scent strip, preferably a cellulosic scent strip, to be dosed. The strip is allowed to dry under ambient laboratory conditions, with normal room air movement, in particular no fan, heating or any mean or device to accelerate evaporation. After different times, each strip or at least the part of the scent strip including the area where the solution of the identified candidate to be tested was applied is extracted using 3 ml of alcohol, preferably ethanol, containing an internal standard, such as methyl decanoate. The extracts are then analyzed by gas chromatography and the result is normalized for the principal molecular ion of the identified candidate using the value for the internal standard.
50 µl of a 1 % solution of patchouli alcohol in ethanol was added by pipette to the tip to a series of different scent strips (SARL H. GRANGER-VEYRON, Privas, France). The strips were allowed to dry under ambient laboratory conditions.
After different times (t0, t0+1hour, t0+2hours, t0+4hours, t0+8hours) the tip of a strip where the 50 µl of the solution of the tested material had been applied was cut and put in a 30 ml bottle and extracted using 3 ml of ethanol, containing 50 µl of methyl decanoate as internal standard (10000 ppm solution in cyclohexane), added to each bottle. Care was taken to ensure the entire area around the point of application was included in the area that was cut and extracted. The content of the bottles was mixed for 30 min on a roller bed, and 2 ml vials were then filled with each sample.
Samples were triplicated, i.e. 3 scent strip tips were analysed for each time point.
In a first series of experiments, samples taken at t0, t0+1hour and t0+2hours were analyzed by GC-MS on a […] gas chromatography column (column BC-WAX (50m * 0.25mm * 0.15µm) which is a GC Sciences column supplied by Interchim, Montluçon, France).
In a second series of experiments, samples taken at t0, t0+4hours and t0+8hours were analyzed by GC-MS on a non-polar gas chromatography column (HP-5MS UI (30m * 0.25mm * 0.25µm) which is an Agilent column supplied by Chromoptic, Courtaboeuf, France).
In Tables 6-11, PA stands for patchouli alcohol and IS stands for the internal standard, i.e. methyl decanoate. When plotting the residual concentration of patchouli on the scent strip as a function of time, the mean ratio at t0 was normalized to 100 and then t0+1h, t0+2h, t0+4h and t0+8h were calculated; t0 being defined as 2 minutes after dosing the 50 µl of the solution of the tested material, which was applied towards the tip of the scent strip.
A "long-lasting" analysis of pogostone was performed as described in Example 5 with samples taken at t0, t0+1hour and t0+2hours.
In Tables 12-14 herebelow, POG stands for pogostone and IS stands for the internal standard, i.e. methyl decanoate. The mean ratio at t0 was normalized as described in Example 5.

[1] = t0, second series, HP-5MS UI column

## C[C@H]1CC[C@@]2(O)C(C)(C)[C@@H]3CC[C@@]2(C)[C@H]1C3 [Patchouli alcohol]
After 1 hour on scent strip
  retained initial concentration: at least 10%
t0+1h, BC-WAX column
  PA (GC-MS signal), mean value: 2.09E+06
  Ratio PA/IS, mean value: 6.70E-01
  PA (GC-MS signal), sample 1-3: 2.10E+06 and 2.12E+06 and 2.05E+06
  Ratio PA/IS, sample 1-3: 6.50E-01 and 7.16E-01 and 6.43E-01
t0+2h, BC-WAX column
  PA (GC-MS signal), mean value: 1.35E+06
  Ratio PA/IS, mean value: 4.29E-01
  PA (GC-MS signal), sample 1-3: 1.38E+06 and 1.32E+06 and 1.35E+06
  Ratio PA/IS, sample 1-3: 3.74E-01 and 4.52E-01 and 4.62E-01
t0+4h, HP-5MS UI column
  PA (GC-MS signal), mean value: 3.26E+06
  Ratio PA/IS, mean value: 4.15E-01
  PA (GC-MS signal), sample 1-3: 3.83E+06 and 2.94E+06 and 3.00E+06
  Ratio PA/IS, sample 1-3: 4.67E-01 and 3.89E-01 (2×)
t0+8h, HP-5MS UI column
  PA (GC-MS signal), mean value: 1.58E+06
  Ratio PA/IS, mean value: 1.86E-01
  PA (GC-MS signal), sample 1-3: 2.02E+06 and 1.37E+06 and 1.35E+06
  Ratio PA/IS, sample 1-3: 2.16E-01 and 1.77E-01 and 1.65E-01
t0, BC-WAX column
  PA (GC-MS signal), mean value: 2.93E+06
  Ratio PA/IS, mean value: 9.67E-01
  PA (GC-MS signal), sample 1-3: 2.98E+06 and 2.87E+06 and 2.94E+06
  Ratio PA/IS, sample 1-3: 9.42E-01 and 9.89E-01 and 9.69E-01
[1]
  PA (GC-MS signal), mean value: 9.18E+06
  Ratio PA/IS, mean value: 1.24E+00
  PA (GC-MS signal), sample 1-3: 9.37E+06 and 9.23E+06 and 8.94E+06
  Ratio PA/IS, sample 1-3: 1.25E+00 and 1.22E+00 and 1.26E+00
